The text below walks through data of patent US9993001B2, “Herbicidal composition” (ISHIHARA SANGYO KAISHA, LTD., priority 2014, dated 2018).

Common to all, as to type: in vivo
In assay [1] the test system is Oriental lady's thumb (Persicaria longiseta). The assay is described as follows: Test Example 7: common bean field, soil treatment, metobromuron + trifluralin. The conditions noted are these: soil, read-out: Growth inhibition rate of Oriental lady's thumb (%) Measured value. The source says: (§1) When the herbicidal activity in a case where two active ingredients are combined, is larger than the simple sum of the respective herbicidal activities of the two active ingredients (the expected activity), it is called a synergistic effect. The activity expected by the combination of two active ingredients can be calculated as follows (Colby S. R., “Weed”, vol. 15, p. 20-22, 1967). E=α+β−(α×β[…]) where α: growth inhibition rate when treated with x (g/ha) of herbicide X, • β: growth inhibition rate when treated with y (g/ha) of herbicide Y, • E: growth inhibition rate expected when treated with x (g/ha) of herbicide X and y (g/ha) of herbicide Y.
(§2) On the 19th day after treatment, the state of growth of barnyardgrass was visually observed and evaluated in accordance with the following standards. The growth inhibition rate (%) [measured value] and the growth inhibition rate (%) [calculated value] calculated by the Colby's method, are shown in Table 2.
(§3) Growth inhibition rate (%)=inhibition rate) (%) of 0 (equivalent to the non-treated area) to 100 (complete kill) […]
On the 49th day after treatment, the state of growth of Oriental lady's thumb (Persicaria longiseta) which occurred naturally, was visually observed and evaluated in the same manner as in Test Example 1.

The subject of assay [2] is black nightshade (Solanum nigrum L.). The assay is described as follows: Test Example 14: pot, soil treatment, metobromuron + pyroxasulfone. The conditions noted are these: soil, read-out: Growth inhibition rate of black nightshade (%) Measured value.
Excerpt: as §1, §2
(§4) Growth inhibition rate (%)=inhibition rate) (%) of 0 (equivalent to the non-treated area) to 100 (complete kill)
Soil was put into a 1/300,000 ha pot, and seeds of black nightshade (Solanum nigrum L.) were sown. Prior to germination of black nightshade, predetermined amounts of SC containing metobromuron as active ingredient (same as in Test Example 1) and WG containing pyroxasulfone as active ingredient (same as in Test Example 13) were diluted with water corresponding to 1,000 L per hectare and applied for soil treatment.
On the 12th day after treatment, the state of growth of black nightshade was visually observed and evaluated in the same manner as in Test Example 1.

The subject of assay [3] is barnyardgrass (Echinochloa crus-qalli L.). The assay is described as follows: Test Example 1: soybean field, soil treatment, metobromuron + chlorpropham. The note with it: soil, read-out: Growth inhibition rate of barnyardgrass (%) Measured value. The source says: When the herbicidal activity in a case where two active ingredients are combined, is larger than the simple sum of the respective herbicidal activities of the two active ingredients (the expected activity), it is called a synergistic effect. The activity expected by the combination of two active ingredients can be calculated as follows (Colby S. R., “Weed”, vol. 15, p. 20-22, 1967). E=α+β−(α×β[…]) where α: growth inhibition rate when treated with x (g/ha) of herbicide X, • β: growth inhibition rate when treated with y (g/ha) of herbicide Y, • E: growth inhibition rate expected when treated with x (g/ha) of herbicide X and y (g/ha) of herbicide Y. […]
On the 19th day after treatment, the state of growth of barnyardgrass was visually observed and evaluated in accordance with the following standards. The growth inhibition rate (%) [measured value] and the growth inhibition rate (%) [calculated value] calculated by the Colby's method, are shown in Table 2. […]

In assay [4] the test system is Nepalese Smartweed (Persicaria nepalensis (Meisn.) H. Gross). The assay is described as follows: Test Example 6: adzuki bean field, soil treatment, metobromuron + S-metolachlor. The note with it: soil, read-out: Growth inhibition rate of Nepalese Smartweed (%) Measured value.
Excerpt: as §1, §2, §4
In an adzuki bean agricultural field (9.6 square meters per one test section), predetermined amounts of SC containing metobromuron as active ingredient (same as in Test Example 1) and EC containing S-metolachlor as active ingredient (same as in Test Example 2) were diluted with water corresponding to 1,000 L per hectare and applied for soil treatment, prior to germination of adzuki bean and weeds.
On the 39th day after treatment, the state of growth of Nepalese Smartweed (Persicaria nepalensis (Meisn.) H. Gross) which occurred naturally, was visually observed and evaluated in the same manner as in Test Example 1.

For assay [5], the system named is annual bluegrass (Poa annua L.). The assay is described as follows: Test Example 19: pot, soil treatment, metobromuron + chlorpropham. The note with it: soil, read-out: Growth inhibition rate of annual bluegrass (%) Measured value.
Assay [6] deals with large crabgrass (Digitaria sanquinalis L.). The assay is described as follows: Test Example 29: pot, soil treatment, metobromuron + indanofan. The conditions noted are these: soil, read-out: Growth inhibition rate of large crabgrass (%) Measured value.
Excerpt: as §1, §2, §4
Soil was put into a 1/300,000 ha pot, and seeds of large crabgrass (Digitaria sanquinalis L.) were sown. On the day after seeding, predetermined amounts of SC containing metobromuron as active ingredient (same as in Test Example 1) and WP containing indanofan as active ingredient were diluted with water corresponding to 1,000 L per hectare and applied for soil treatment.
On the 20th day after treatment, the state of growth of large crabgrass was visually observed and evaluated in the same manner as in Test Example 1.

Assay [7] deals with barnyardgrass (Echinochloa crus-qalli L.). The assay is described as follows: Test Example 21: pot, soil treatment, metobromuron + prometryn. The note with it: soil, read-out: Growth inhibition rate of barnyardgrass (%) Measured value.
Excerpt: as §1, §2, §4
Soil was put into a 1/300,000 ha pot, and seeds of barnyardgrass (Echinochloa crus-qalli L.) were sown. On the day after seeding, predetermined amounts of SC containing metobromuron as active ingredient (same as in Test Example 1) and WP containing prometryn as active ingredient (trade name: Gesagard 50, manufactured by Nippon Kayaku Co., Ltd.) were diluted with water corresponding to 1,000 L per hectare and applied for soil treatment.
On the 21st day after treatment, the state of growth of barnyardgrass was visually observed and evaluated in the same manner as in Test Example 1.

In assay [8] the test system is black nightshade (Solanum nigrum L.). The assay is described as follows: Test Example 23: pot, soil treatment, metobromuron + fluazifop-P-butyl. The note with it: Solanum nigrum, soil, read-out: Growth inhibition rate of black nightshade (%) Measured value.
Excerpt: as §1, §2, §4
Soil was put into a 1/300,000 ha pot, and seeds of black nightshade (Solanum nigrum L.) were sown. […]
On the 20th day after treatment, the state of growth of black nightshade was visually observed and evaluated in the same manner as in Test Example 1.

Assay [9] has as its system common chickweed (Stellaria media L.). The assay is described as follows: Test Example 25: pot, soil treatment, metobromuron + trifluralin. The conditions noted are these: soil, read-out: Growth inhibition rate of common chickweed (%) Measured value.
The subject of assay [10] is large crabgrass (Diqitaria sanquinalis L.). The assay is described as follows: Test Example 11: corn field, foliar treatment, metobromuron + nicosulfuron. The note with it: Digitaria sanguinalis, foliar, read-out: Growth inhibition rate of large crabgrass (%) Measured value.
Excerpt: as §1, §2, §3
On the 30th day after treatment, the state of growth of large crabgrass was visually observed and evaluated in the same manner as in Test Example 1.

As a reminder, the inhibition is the change of the read-out against control, counted positive when it falls.

In the case of `CON(C)C(=O)Nc1ccc(Br)cc1` [Metobromuron, 3-(4-bromophenyl)-1-methoxy-1-methylurea], the results for the inhibition at 1500 g/ha in [1], in assay [4] and in [7] were 10%, 40% and 72%, respectively. Besides, the inhibition at 375 g/ha was determined as 64% in assay [2], 50% in assay [5] and 50% in assay [6]. Also, the inhibition at 750 g/ha in assay [2] came to 83%; in [7] it was 20%; in [8], 85%. Also, the inhibition at 1000 g/ha in [3] amounted to 58%; in [4], 35%; in assay [7] it was 43%; in assay [10], 25%. In addition, the inhibition at 250 g/ha is 30% in assay [6] and 73% in [9]. Besides, the inhibition at 562.5 g/ha in assay [6] was determined as 80%.
